After the bases stand the sugars from the 5' end (letter, count) and the backbone: PS all phosphorothioate, else s phosphorothioate and o phosphodiester by linkage. Methylation of C is not given here. e = 2'-O-(2-methoxyethyl) (MOE); k = constrained ethyl (cEt); d = 2'-deoxy (DNA); m = 2'-O-methyl

The data set addresses HSD17B13. The note with it: ASO, HepaRG.

Where the note is “1 µM”, “TCTTAGCTGTGCACTC (sugars k3 d1 m1 d8 k3, PS)” gave a target mRNA inhibition of 71%.

Take TCTTATTGGTAAGTAT (sugars k3 d10 k3, PS): the target mRNA inhibition (1 µM) was found to be 25%.

In the case of “TCTTGACAATGGTTGA (sugars kkdddddddddkekek, PS)”, the target mRNA inhibition (1 µM) is 40%.

Sequence TCTTGGGTCCATTGTT (sugars k3 d10 k3, PS) returned a target mRNA inhibition (1 µM) of 60%.

As for TCTTTTTATAGACTGG (sugars k3 d10 k3, PS), the target mRNA inhibition stood at 0% (0.02 µM); 0% (0.078 µM); 35% (0.313 µM); 82% (1 µM); 55% (1.25 µM); 90% (5 µM).

On to “TGAACAGTCTTAAACC (sugars k3 d1 m1 d8 k3, PS)”, for which the target mRNA inhibition (1 µM) is 57%.

TGAACCCAGTATTCAC (sugars k3 d10 k3, PS) gave a target mRNA inhibition (1 µM) of 10%.

In the case of “TGAAGTTAGTATAGTT (sugars k3 d9 k3 e1, PS)”, for the setting “1 µM”, the target mRNA inhibition was 70%.

The sequence TGAATAGCAAGCCAAC (sugars k3 d10 k3, PS) showed a target mRNA inhibition (1 µM) of 4%.

For the sequence TGACAACAGAGTTCTG (sugars k3 d10 k3, PS), under “1 µM”, the target mRNA inhibition was 11%.

TGACAATGGTTGATAG (sugars k3 d10 k3, PS) yielded a target mRNA inhibition (1 µM) of 16%.

As to “TGACAATGGTTGCCAC (sugars k3 d1 m1 d8 k3, PS)”, for the setting “1 µM”, the target mRNA inhibition turned out to be 55%.

Regarding “TGACAATGGTTGCCAC (sugars k3 d9 k3 e1, PS)”, the target mRNA inhibition (1 µM) came out at 45%.

For TGAGAAGATCGGCTGG (sugars k3 d10 k3, PS), for the setting “1 µM”, the target mRNA inhibition worked out at 37%.

With TGAGAGAACTTATACA (sugars k3 d10 k3, PS), under “1 µM”, the target mRNA inhibition amounted to 32%.

The sequence TGAGGTAAGGAATCCC (sugars k3 d10 k3, PS) gave a target mRNA inhibition (1 µM) of 2%.

With TGAGGTTTTGATACCA (sugars k3 d10 k3, PS), the target mRNA inhibition (1 µM) was determined as 63%.

Turning to TGAGTAAACGACTCTG (sugars k3 d10 k3, PS), the target mRNA inhibition (1 µM) was determined as 23%.

TGATATACGATGGAAC (sugars k3 d10 k3, PS): the target mRNA inhibition (1 µM) amounted to 13%.

In the case of TGATGGTGATCAGAAG (sugars k3 d10 k3, PS), the target mRNA inhibition (1 µM) amounted to 0%.

As to “TGATGTAGTGGGAGTC (sugars k3 d9 k3 e1, PS)”, the target mRNA inhibition reads like this: (0.02 µM) 5%; (0.078 µM) 0%; (0.313 µM) 36%; (1.25 µM) 62%; (5 µM) 74%.

Turning to TGATGTAGTGGGAGTC (sugars k3 d10 k3, PS), the target mRNA inhibition (1 µM) was determined as 65%.

Where the note is “1 µM”, TGATTACAGCATCAAG (sugars k3 d10 k3, PS) had a target mRNA inhibition of 69%.

As to TGATTCGAAACTATTC (sugars k3 d10 k3, PS), the target mRNA inhibition (1 µM) was 29%.

Turning to “TGATTGAGTTCTCCAC (sugars k3 d9 k3 e1, PS)”, under “1 µM”, the target mRNA inhibition is 30%.

“TGATTGAGTTCTCCAC (sugars kkdddddddddkekek, PS)”: the target mRNA inhibition (1 µM) is 32%.

“TGCATCTTAAGATACC (sugars k3 d9 k3 e1, PS)” came in with a target mRNA inhibition (1 µM) of 37%.

Consider “TGCAUCTTAAGATACC (sugars k3 d1 m1 d8 k3, PS)”, for which the target mRNA inhibition (1 µM) is 51%.

Sequence TGCCAGATTGCACAAA (sugars k3 d10 k3, PS) displayed a target mRNA inhibition (1 µM) of 54%.

The sequence TGCCAGGGAATGCTCA (sugars k3 d10 k3, PS) gave a target mRNA inhibition (1 µM) of 23%.

Consider TGCGAGAAATCTAAGA (sugars k3 d10 k3, PS), for which the target mRNA inhibition (1 µM) is 50%.

As for TGCTAAGTAGTAATTC (sugars k3 d10 k3, PS), the target mRNA inhibition (1 µM) came to 32%.

Regarding “TGCTAGTGCCAAACCA (sugars k3 d9 k3 e1, PS)”, the target mRNA inhibition was 8% (0.02 µM); 16% (0.078 µM); 38% (0.313 µM); 73% (1 µM); 54% (1.25 µM); 71% (5 µM).

Consider TGCTCCATAATAATAG (sugars k3 d10 k3, PS), for which the target mRNA inhibition (1 µM) turned out to be 35%.

For TGCTGAGAAGATCGGC (sugars k3 d10 k3, PS), the target mRNA inhibition (1 µM) worked out at 7%.

With “TGCTGCTAGTGCCAAA (sugars k3 d1 m1 d8 k3, PS)”, the target mRNA inhibition (1 µM) is 50%.

As to “TGGAATGCTACTTGAA (sugars k3 d1 m1 d8 k3, PS)”, the target mRNA inhibition runs as follows: (0.02 µM) 13%; (0.078 µM) 27%; (0.313 µM) 35%; (1 µM) 79%; (1.25 µM) 66%; (5 µM) 91%.

Under “1 µM”, “TGGAATGCTACTTGAA (sugars kkdddddddddkekek, PS)” yielded a target mRNA inhibition of 68%.

Sequence TGGAGGAAAGCTTCAA (sugars k3 d10 k3, PS) showed a target mRNA inhibition (1 µM) of 10%.

Consider “TGGCATGGCTACAGAT (sugars kkdddddddddkekek, PS)”, for which, under “1 µM”, the target mRNA inhibition worked out at 58%.

TGGCCGCACACTGAAG (sugars k3 d10 k3, PS) showed a target mRNA inhibition (1 µM) of 0%.

Under “1 µM”, TGGCCTTACCAGAATT (sugars k3 d10 k3, PS) had a target mRNA inhibition of 46%.

On to TGGTAACGGTGATCAA (sugars k3 d10 k3, PS), for which the target mRNA inhibition (0.02 µM) came out at 14%; the target mRNA inhibition (0.078 µM) amounted to 28%; the target mRNA inhibition (0.313 µM) was found to be 58%; the target mRNA inhibition (1 µM) turned out to be 74%; the target mRNA inhibition (1.25 µM) turned out to be 76%; the target mRNA inhibition (5 µM) amounted to 88%.

For TGGTAATCTCTTCATC (sugars k3 d10 k3, PS), the target mRNA inhibition (1 µM) turned out to be 23%.

TGGTGGACTTCAGAGT (sugars k3 d10 k3, PS) came in with a target mRNA inhibition (1 µM) of 17%.

As for TGTAAAGGCTGGGTGA (sugars k3 d10 k3, PS), the target mRNA inhibition (1 µM) is 26%.

Regarding TGTAAGCTGAGAGTTC (sugars k3 d10 k3, PS), the target mRNA inhibition (1 µM) stood at 45%.

As for TGTCAGAGACTCTGTG (sugars k3 d10 k3, PS), for the setting “1 µM”, the target mRNA inhibition stood at 39%.

For “TGTCCACCTTTAAATG (sugars k3 d1 m1 d8 k3, PS)”, the target mRNA inhibition (1 µM) was 17%.

As to “TGTCCACCTTTAAATG (sugars kkdddddddddkekek, PS)”, where the note is “1 µM”, the target mRNA inhibition came out at 27%.

In the case of TGTCCAGAAGTATGTG (sugars k3 d10 k3, PS), under “1 µM”, the target mRNA inhibition was found to be 0%.

For “TGTCTAAACATCTCTG (sugars k3 d9 k3 e1, PS)”, the target mRNA inhibition (1 µM) amounted to 69%.

On to TGTCTAAACATCTCTG (sugars k3 d10 k3, PS), for which the target mRNA inhibition (1 µM) was 58%.

Consider “TGTCTAAACATCTCTG (sugars kkdddddddddkekek, PS)”, for which the target mRNA inhibition (1 µM) was determined as 59%.

Sequence TGTCTCCAATACAGGC (sugars k3 d10 k3, PS) showed a target mRNA inhibition (1 µM) of 39%.

Take “TGTCUAAACATCTCTG (sugars k3 d1 m1 d8 k3, PS)”: under “1 µM”, the target mRNA inhibition was determined as 44%.

The sequence “TGTGATTGAGTTCTCC (sugars k3 d9 k3 e1, PS)” came in with a target mRNA inhibition (1 µM) of 52%.

Take TGTGATTGAGTTCTCC (sugars k3 d10 k3, PS): the target mRNA inhibition is 1% (0.02 µM); 14% (0.078 µM); 20% (0.313 µM); 62% (1 µM); 42% (1.25 µM); 70% (5 µM).

Regarding “TGTGATTGAGTTCTCC (sugars kkdddddddddkekek, PS)”, the target mRNA inhibition (1 µM) is 11%.

Where the note is “1 µM”, “TGTGGCATGGCTACAG (sugars k3 d9 k3 e1, PS)” yielded a target mRNA inhibition of 25%.

Sequence TGTGGCATGGCTACAG (sugars k3 d10 k3, PS) had a target mRNA inhibition (1 µM) of 24%.

Regarding TGTGTAGTCCTAGGGA (sugars k3 d10 k3, PS), for the setting “1 µM”, the target mRNA inhibition is 50%.

Sequence TGTGTTCTTGTTGATA (sugars k3 d10 k3, PS) gave a target mRNA inhibition (1 µM) of 69%.

Turning to “TGTGUTCTTGTTGATA (sugars k3 d1 m1 d8 k3, PS)”, under “1 µM”, the target mRNA inhibition came to 41%.

TGTTAACCTGCAGCAG (sugars k3 d10 k3, PS) had a target mRNA inhibition (1 µM) of 39%.

TGTTACATCACCCACT (sugars k3 d10 k3, PS) displayed a target mRNA inhibition (1 µM) of 35%.

Under “1 µM”, TGTTAGGACCCAGTCT (sugars k3 d10 k3, PS) returned a target mRNA inhibition of 51%.

Consider TGTTGACCTCAAATGT (sugars k3 d10 k3, PS), for which, where the note is “1 µM”, the target mRNA inhibition was 14%.

Where the note is “1 µM”, “TGTTGATATTCTGTGG (sugars kkdddddddddkekek, PS)” had a target mRNA inhibition of 54%.

Sequence TGTTTATGTAAGCACA (sugars k3 d10 k3, PS) showed a target mRNA inhibition (1 µM) of 74%.

Under “1 µM”, “TTAAACCTTCCCTGTG (sugars k3 d9 k3 e1, PS)” showed a target mRNA inhibition of 18%.

TTAAACTCCAATGTGT (sugars k3 d10 k3, PS) registered a target mRNA inhibition (1 µM) of 36%.

For the sequence TTAAAGACAGGGTGGT (sugars k3 d10 k3, PS), the target mRNA inhibition (1 µM) amounted to 21%.

Regarding “TTAAGATACCCAGGTT (sugars k3 d1 m1 d8 k3, PS)”, for the setting “1 µM”, the target mRNA inhibition amounted to 30%.

In the case of TTAAGCAGAATTGTGA (sugars k3 d10 k3, PS), the target mRNA inhibition (1 µM) was 7%.

The sequence TTAAGCATTGTTAGCT (sugars k3 d10 k3, PS) showed a target mRNA inhibition (1 µM) of 16%.

Under “1 µM”, TTAATCATGGGACAGG (sugars k3 d10 k3, PS) returned a target mRNA inhibition of 27%.

Sequence “TTAAUGCCACCCTACC (sugars k3 d1 m1 d8 k3, PS)” showed a target mRNA inhibition (1 µM) of 8%.

With TTACAACCTGGTTTCA (sugars k3 d10 k3, PS), the target mRNA inhibition (1 µM) was found to be 25%.

In the case of “TTACAGCATCAAGACA (sugars k3 d1 m1 d8 k3, PS)”, the target mRNA inhibition (1 µM) was determined as 46%.

Take TTACATATCAATGCCT (sugars k3 d10 k3, PS): the target mRNA inhibition (1 µM) came out at 12%.
